Data reported in patent publication US10052330B2, “Substituted pyrido[3,4-b]pyrazines as Syk inhibitors” (HUTCHISON MEDIPHARMA LIMITED, priority 2011, dated 2018).

Target: Syk kinase (Homo sapiens, UniProt P43405)
Test: Syk kinase enzymatic assay (Kit-Tyr 2 Peptide)
Assay type: biochemical
Details: 8 concentrations, 1 μM down to 0.0003 μM; upper bound of each range is 'less than'; read-out: IC50: Enzymatic Activity (Syk kinase)

| Compound | IC50 [nM] |
| --- | --- |
| FC1(CNc2nc(-c3ccc(N4CCOCC4)nc3)cc3nccnc23)CCCNC1 (single isomer, unassigned) [Compound 378] | 100 to 1000 |
| CN1CCN(c2ccc(-c3cc4nccnc4c(NCC4(F)CCCNC4)n3)cc2)CC1 (single isomer, unassigned) [Compound 380] | 1 to 100 |
| c1cnc2c(N3CC4CNCC4C3)nc(-c3ccc(N4CCOCC4)cc3)cc2n1 (centres unmarked) [Compound 6] | 100 to 1000 |
| NC1CCN(c2nc(-c3ccc(N4CCOCC4)cc3)cc3nccnc23)CC1 [Compound 7] | 100 to 1000 |
| c1cnc2c(N3CCC4CNCC43)nc(-c3ccc(N4CCOCC4)cc3)cc2n1 (centres unmarked) [Compound 8] | 100 to 1000 |
| COc1cc(-c2cc3nccnc3c(NCC3CCCNC3)n2)cc(OC)c1OC (centres unmarked) [Compound 11] | 100 to 1000 |
| c1cc(-c2cc3nccnc3c(NCC3CCCNC3)n2)cc(N2CCOCC2)c1 (centres unmarked) [Compound 14] | 100 to 1000 |
| Fc1ccc(-c2cc3nccnc3c(NCC3CCCNC3)n2)cc1Cl (centres unmarked) [Compound 20] | 100 to 1000 |
| c1cnc2c(NC3CCCNC3)nc(-c3ccc(N4CCOCC4)cc3)cc2n1 (centres unmarked) [Compound 27] | 100 to 1000 |
| c1cnc2c(NCC3CCCNC3)nc(-c3ccoc3)cc2n1 (centres unmarked) [Compound 31] | 100 to 1000 |
| OCCn1cc(-c2cc3nccnc3c(NC[C@H]3CCCNC3)n2)cn1 [Compound 34] | 1 to 100 |
| NS(=O)(=O)c1ccc(-c2cc3nccnc3c(NCC3CCCNC3)n2)cc1 (centres unmarked) [Compound 43] | 100 to 1000 |
| CNC(=O)COc1ccc(-c2cc3nccnc3c(NCC3CCCNC3)n2)cc1 (centres unmarked) [Compound 48] | 1 to 100 |
| CNC(=O)COc1cccc(-c2cc3nccnc3c(NCC3CCCNC3)n2)c1 (centres unmarked) [Compound 49] | 100 to 1000 |
| CS(=O)(=O)Nc1ccc(-c2cc3nccnc3c(NCC3CCCNC3)n2)cc1 (centres unmarked) [Compound 53] | 1 to 100 |
| Nc1ccc(-c2cc3nccnc3c(NCC3CCCNC3)n2)cn1 (centres unmarked) [Compound 57] | 100 to 1000 |
| CN(C)c1ccc(-c2cc3nccnc3c(NCC3CCCNC3)n2)cn1 (centres unmarked) [Compound 59] | 1 to 100 |
| c1cnc2c(NCC3CCCNC3)nc(-c3ccc(N4CCNCC4)cc3)cc2n1 (centres unmarked) [Compound 61] | 1 to 100 |
| CN(C)Cc1ccc(-c2cc3nccnc3c(NCC3CCCNC3)n2)cc1 (centres unmarked) [Compound 64] | 1 to 100 |
| O=C(c1ccc(-c2cc3nccnc3c(NCC3CCCNC3)n2)cc1)N1CCOCC1 (centres unmarked) [Compound 65] | 100 to 1000 |
| CCNC(=O)c1ccc(-c2cc3nccnc3c(NCC3CCCNC3)n2)cc1 (centres unmarked) [Compound 66] | 100 to 1000 |
| COCCn1cc(-c2cc3nccnc3c(NCC3CCCNC3)n2)cn1 (centres unmarked) [Compound 72] | 100 to 1000 |
| CN(C)CCOc1ccc(-c2cc3nccnc3c(NCC3CCCNC3)n2)cc1 (centres unmarked) [Compound 90] | 1 to 100 |
| c1cnc2c(NC[C@H]3CNCCO3)nc(-c3ccc(N4CCCC4)nc3)cc2n1 [Compound 101] | 100 to 1000 |
| c1cnc2c(N3CC4CCNC4C3)nc(-c3ccc(N4CCOCC4)cc3)cc2n1 (centres unmarked) [Compound 145, 4-(4-(5-(hexahydropyrrolo[3,4-b]pyrrol-5(1H)-yl)pyrido[4,3-b]pyrazin-7-yl)phenyl)morpholine] | 100 to 1000 |
| CCN(CC1CCCNC1)c1nc(-c2ccc(N3CCOCC3)cc2)cc2nccnc12 (centres unmarked) [Compound 154] | 100 to 1000 |
| COc1ccc(-c2cc3nccnc3c(NCCCN)n2)cc1OC [Compound 191] | 100 to 1000 |

| Compound | IC50 [nM] |
| --- | --- |
| CC(C)Nc1nc(-c2ccc(N3CCOCC3)cc2)cc2nccnc12 [Compound 195] | 100 to 1000 |
| COc1cc(-c2cc3nccnc3c(NCCCN)n2)ccc1OCCN1CCOCC1 [Compound 198] | 100 to 1000 |
| Cc1cc(-c2cc3nccnc3c(NCC3CNCC(F)(F)C3)n2)ccc1N1CCOCC1 (centres unmarked) [Compound 201] | 100 to 1000 |
| Fc1cc(-c2cc3nccnc3c(NCC3CNCC(F)(F)C3)n2)ccc1N1CCOCC1 (centres unmarked) [Compound 202] | 100 to 1000 |
| FC1(F)CNCC(CNc2nc(-c3ccc(N4CCOCC4)c(Cl)c3)cc3nccnc23)C1 (centres unmarked) [Compound 203] | 100 to 1000 |
| CNc1ccc(-c2cc3nccnc3c(NCC3CNCC(F)(F)C3)n2)cc1 (centres unmarked) [Compound 204] | 100 to 1000 |
| FC1(F)CNCC(CNc2nc(-c3ccc(N4CCOCC4)nc3)cc3nccnc23)C1 (centres unmarked) [Compound 206] | 100 to 1000 |
| CNc1ccc(-c2cc3nccnc3c(NCC3CNCC(F)(F)C3)n2)cc1F (centres unmarked) [Compound 207] | 100 to 1000 |
| CCn1cc(-c2cc3nccnc3c(NC[C@@H]3CNCCO3)n2)cn1 [Compound 209] | 100 to 1000 |
| Cn1cc(-c2cc3nccnc3c(NC[C@@H]3CNCCO3)n2)cn1 [Compound 210] | 100 to 1000 |
| CS(=O)(=O)c1ccc(-c2cc3nccnc3c(NC[C@@H]3CNCCO3)n2)cc1 [Compound 211] | 100 to 1000 |
| CN(C)Cc1ccc(-c2cc3nccnc3c(NC[C@@H]3CNCCO3)n2)cc1 [Compound 212] | 100 to 1000 |
| CN(C)C(=O)Cc1ccc(-c2cc3nccnc3c(NC[C@@H]3CNCCO3)n2)cc1 [Compound 224] | 100 to 1000 |
| CN(C)S(=O)(=O)c1ccc(-c2cc3nccnc3c(NCC3CNCCO3)n2)cc1 (centres unmarked) [Compound 227] | 100 to 1000 |
| O=C1COCCN1c1ccc(-c2cc3nccnc3c(NC[C@@H]3CNCCO3)n2)cc1 [Compound 242] | 100 to 1000 |
| c1cnc2c(NC[C@@H]3CNCCO3)nc(-c3ccc4c(c3)OCCO4)cc2n1 [Compound 244] | 100 to 1000 |
| Fc1ccc(-c2cc3nccnc3c(NC[C@@H]3CNCCO3)n2)cc1 [Compound 245] | 100 to 1000 |
| C[C@@H]1CN(c2ccc(-c3cc4nccnc4c(NC[C@@H]4CNCCO4)n3)cn2)C[C@H](C)O1 [Compound 246] | 100 to 1000 |
| c1cn(-c2ccc(-c3cc4nccnc4c(NC[C@@H]4CNCCO4)n3)cc2)cn1 [Compound 248] | 100 to 1000 |
| Cn1cc(-c2ccc(-c3cc4nccnc4c(NC[C@@H]4CNCCO4)n3)cc2)cn1 [Compound 249] | 100 to 1000 |
| FC1(CNc2nc(-c3ccc(N4CCOCC4)nc3)cc3nccnc23)CCCNC1 (centres unmarked) [Compound 252] | 100 to 1000 |
| CN1CC2CN(c3ccc(-c4cc5nccnc5c(NC[C@@H]5CNCCO5)n4)cn3)CC2C1 (some centres unmarked) [Compound 256] | 100 to 1000 |
| OC1CCN(c2ccc(-c3cc4nccnc4c(NC[C@@H]4CNCCO4)n3)cn2)C1 (some centres unmarked) [Compound 257] | 100 to 1000 |
| c1cnc2c(NC[C@@H]3CNCCO3)nc(-c3ccc(OCC4CCOCC4)nc3)cc2n1 [Compound 258] | 100 to 1000 |
| CN1CCC(n2cc(-c3cc4nccnc4c(NC[C@@H]4CNCCO4)n3)cn2)CC1 [Compound 262] | 100 to 1000 |
| c1cnc2c(NC[C@@H]3CNCCO3)nc(-c3ccc(OCCN4CCOCC4)nc3)cc2n1 [Compound 263] | 100 to 1000 |
| CC(C)(O)COc1ccc(-c2cc3nccnc3c(NC[C@@H]3CNCCO3)n2)cc1 [Compound 268] | 100 to 1000 |

| Compound | IC50 [nM] |
| --- | --- |
| c1cnc2c(NC[C@@H]3CNCCO3)nc(-c3ccc(OC4CCOCC4)nc3)cc2n1 [Compound 271] | 100 to 1000 |
| CC(Nc1nc(-c2ccc(N3CCOCC3)nc2)cc2nccnc12)C1CNCCO1 (centres unmarked) [Compound 277] | 100 to 1000 |
| O=S(=O)(c1ccc(-c2cc3nccnc3c(NC[C@@H]3CNCCO3)n2)cc1)N1CCOCC1 [Compound 283] | 100 to 1000 |
| CNS(=O)(=O)c1ccc(-c2cc3nccnc3c(NC[C@@H]3CNCCO3)n2)cc1 [Compound 284] | 100 to 1000 |
| COCCn1cc(-c2cc3nccnc3c(NCC3(F)CCCNC3)n2)cn1 (centres unmarked) [Compound 288] | 100 to 1000 |
| COc1ccc(-c2cc3nccnc3c(NCC3CNCCC3(F)F)n2)cn1 (centres unmarked) [Compound 299] | 100 to 1000 |
| O=C(C(F)F)N1CCC(F)(F)C(CNc2nc(-c3cnn(C4CCOCC4)c3)cc3nccnc23)C1 (centres unmarked) [Compound 325] | 100 to 1000 |
| CC(=O)N1CCO[C@H](CNc2nc(-c3ccc(N4CCOCC4)cc3)cc3nccnc23)C1 [Compound 326] | 100 to 1000 |
| CCC(=O)N1CCO[C@H](CNc2nc(-c3ccc(N4CCOCC4)cc3)cc3nccnc23)C1 [Compound 327] | 100 to 1000 |
| CC(C)C(=O)N1CCO[C@H](CNc2nc(-c3ccc(N4CCOCC4)cc3)cc3nccnc23)C1 [Compound 328] | 100 to 1000 |
| O=C(CO)N1CCO[C@H](CNc2nc(-c3ccc(N4CCOCC4)cc3)cc3nccnc23)C1 [Compound 337] | 100 to 1000 |
| CNC(=O)N1CCO[C@H](CNc2nc(-c3ccc(N4CCOCC4)cc3)cc3nccnc23)C1 [Compound 339] | 100 to 1000 |
| CC(C)(F)C(=O)N1CCO[C@H](CNc2nc(-c3ccc(N4CCOCC4)cc3)cc3nccnc23)C1 [Compound 341] | 100 to 1000 |
| CC(F)(F)C(=O)N1CCO[C@H](CNc2nc(-c3ccc(N4CCOCC4)cc3)cc3nccnc23)C1 [Compound 342] | 100 to 1000 |
| O=C(CC(F)(F)F)N1CCO[C@H](CNc2nc(-c3ccc(N4CCOCC4)cc3)cc3nccnc23)C1 [Compound 343] | 100 to 1000 |
| O=S(=O)(C1CC1)N1CCO[C@H](CNc2nc(-c3ccc(N4CCOCC4)cc3)cc3nccnc23)C1 [Compound 344] | 100 to 1000 |
| NC(=O)N1CCO[C@H](CNc2nc(-c3ccc(N4CCOCC4)c(F)c3)cc3nccnc23)C1 [Compound 348] | 100 to 1000 |
| NC(=O)N1CCC(CNc2nc(-c3ccc(N4CCOCC4)cc3)cc3nccnc23)CC1 [Compound 350] | 100 to 1000 |
| NC(=O)N1CCCCC1CNc1nc(-c2ccc(N3CCOCC3)cc2)cc2nccnc12 (centres unmarked) [Compound 354] | 100 to 1000 |
| NC(=O)N1CCC(F)(F)C(CNc2nc(-c3cnn(C4CCOCC4)c3)cc3nccnc23)C1 (centres unmarked) [Compound 355] | 100 to 1000 |
| NC(=O)N1CCC(F)(F)C(CNc2nc(-c3ccc(N4CCOCC4)cc3)cc3nccnc23)C1 (centres unmarked) [Compound 356] | 100 to 1000 |
| CNc1nc(-c2ccc(N3CCOCC3)cc2)cc2nccnc12 [Compound 357] | 100 to 1000 |
| CC(CO)Nc1nc(-c2ccc(N3CCOCC3)cc2)cc2nccnc12 (centres unmarked) [Compound 358] | 100 to 1000 |
| O=C1CN(c2nc(-c3ccc(N4CCOCC4)cc3)cc3nccnc23)CCN1 [Compound 360] | 100 to 1000 |
| O=C(O)c1ccccc1Nc1nc(-c2ccc(N3CCOCC3)cc2)cc2nccnc12 [Compound 361] | 100 to 1000 |
| NC(=O)[C@H]1CC[C@@H](Nc2nc(-c3ccc(N4CCOCC4)cc3)cc3nccnc23)CC1 [Compound 363] | 100 to 1000 |
